Reference: the supplement of paper PMC11208160

Assay: recombinant barcode read abundance after kanamycin selection (control-corrected) (log10(CPM+1)); higher = more efficient recombination; sequences stand for … in AGTGCAGAGAAAATCGGCCAGTTTTCTCTGCCTGCAGTCCGCATGCCGT…AGATTTATGCAGCGGACTGCCTTTCTCCCAAAGTGATAAACCGGACAGTATCATGGACCGGTTTTCCCGGTAATCCGTATTTGCAAGGTTGGTTTCACT; site = the 11-nt target
Procedure, shortened: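 A vector carrying a T7-inducible recombinase and the last 73 bp of the bridge RNA received, by Gibson cloning, oligos encoding a promoter, target, barcode and the first 104 bridge RNA bases under J23119. The pooled constructs entered E. coli together with a donor plasmid by electroporation. Selection used chloramphenicol/ampicillin/kanamycin with 0.1 mM IPTG, with chloramphenicol/ampicillin LB agar as the control, each in two replicates. Recombination efficiency is the averaged, control-corrected counts-per-million of barcodes at recombinant junctions, reported as log10(CPM+1).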
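Further: IS621 recombinase and bridge RNA in Escherichia coli cells.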

Sequence | recombinant barcode read abundance (log10)
GGTTAGCCTTGGGTTCTAACCTGTTGCCT (site TGTTAGCCTTG) | 0.0783
GGTTATCCTTGGGTTCTAACCTGTTGCGG (site GGTTATCCTCC) | 1.17
GGTTATCCTTGGGTTCTAACCTGTTGCGG (site TTACGCTCTTA) | 0.0896
GGTTCACCTTGGGTTCTAACCTGTTGCAG (site GGTTCACCTCT) | 1.05
GGTTCACCTTGGGTTCTAACCTGTTGCAG (site GGTTGACCTAT) | 0.0489
GGTTGAACTTGGGTTCTAACCTGTTGCAT (site GCTTGAACTAA) | 0.128
GGTTGAACTTGGGTTCTAACCTGTTGCAT (site GGTTGAACTAT) | 0.0521
GGTTGCACTTGGGTTCTAACCTGTTGCCT (site AGTTGCTCTAG) | 0.189
GGTTGCACTTGGGTTCTAACCTGTTGCCT (site GGTTGCACTAG) | 0.4
GTAAACTCTTGGGTTCTAACCTGTTGCCT (site GTAAACTCTAG) | 1.98
GTAAACTCTTGGGTTCTAACCTGTTGCCT (site GTCAACTCTAG) | 0.0684
GTAAACTCTTGGGTTCTAACCTGTTGCCT (site GTGAACTCTAG) | 0.0821
GTAAACTCTTGGGTTCTAACCTGTTGCCT (site GTTAACTCTAG) | 0.427
GTAAAGTCTTGGGTTCTAACCTGTTGCCA (site CTAAAGTCTTG) | 0.0579
GTAAAGTCTTGGGTTCTAACCTGTTGCCA (site GTAAAGTCTTG) | 0.276
GTAAATCCTTGGGTTCTAACCTGTTGCCT (site ATAAATCCTAG) | 0.141
GTAAATCCTTGGGTTCTAACCTGTTGCCT (site CTAAATCCTAG) | 0.222
GTAAATCCTTGGGTTCTAACCTGTTGCCT (site GTAAATCCTAG) | 1.01
GTAAATCCTTGGGTTCTAACCTGTTGCCT (site TTAAATCCTAG) | 0.132
GTAAATGCTTGGGTTCTAACCTGTTGCCT (site GTAAATGCTAG) | 1.36
GTAAATGCTTGGGTTCTAACCTGTTGCCT (site GTAACTGCTAG) | 0.0397
GTAAATGCTTGGGTTCTAACCTGTTGCCT (site GTAAGTGCTAG) | 0.0927

Sequence | recombinant barcode read abundance (log10)
GTAAATGCTTGGGTTCTAACCTGTTGCCT (site GTAATTGCTAG) | 0.0782
GTAACCGCTTGGGTTCTAACCTGTTGCCT (site GTAACCGCTAG) | 1.64
GTAACCGCTTGGGTTCTAACCTGTTGCCT (site GTCACCGCTAG) | 0.228
GTAACCGCTTGGGTTCTAACCTGTTGCCT (site GTGACCGCTAG) | 0.115
GTAACCGCTTGGGTTCTAACCTGTTGCCT (site GTTACCGCTAG) | 0.432
GTAACCTCTTGGGTTCTAACCTGTTGCCA (site GTAACCTCTAG) | 0.904
GTAACCTCTTGGGTTCTAACCTGTTGCCA (site GTAACCTCTCG) | 0
GTAACCTCTTGGGTTCTAACCTGTTGCCA (site GTAACCTCTGG) | 0.0508
GTAACCTCTTGGGTTCTAACCTGTTGCCA (site GTAACCTCTTG) | 0.983
GTAACCTCTTGGGTTCTAACCTGTTGCCG (site GTAACCTCTAG) | 0.861
GTAACCTCTTGGGTTCTAACCTGTTGCCG (site GTAACCTCTCG) | 1.48
GTAACCTCTTGGGTTCTAACCTGTTGCCG (site GTAACCTCTGG) | 0.0296
GTAACCTCTTGGGTTCTAACCTGTTGCCG (site GTAACCTCTTG) | 0.0357
GTAAGATCTTGGGTTCTAACCTGTTGCAC (site AGGCCCGCTCC) | 0.0896
GTAAGATCTTGGGTTCTAACCTGTTGCAC (site GTAAGATCTGT) | 2.12
GTAAGTACTTGGGTTCTAACCTGTTGCTT (site GTAAGAACTAA) | 0.169
GTAAGTACTTGGGTTCTAACCTGTTGCTT (site GTAAGCACTAA) | 0.233
GTAAGTACTTGGGTTCTAACCTGTTGCTT (site GTAAGGACTAA) | 0.159
GTAAGTACTTGGGTTCTAACCTGTTGCTT (site GTAAGTACTAA) | 0.221
GTAAGTCCTTGGGTTCTAACCTGTTGCGA (site GTAAGTCCTTC) | 2.14
GTAAGTCCTTGGGTTCTAACCTGTTGCGA (site GTGAGTCCTCC) | 0.0113
GTAAGTGCTTGGGTTCTAACCTGTTGCCT (site GTAAATGCTAG) | 0.0588

Sequence | recombinant barcode read abundance (log10)
GTAAGTGCTTGGGTTCTAACCTGTTGCCT (site GTAACTGCTAG) | 0.0692
GTAAGTGCTTGGGTTCTAACCTGTTGCCT (site GTAAGTGCTAG) | 1.28
GTAAGTGCTTGGGTTCTAACCTGTTGCCT (site GTAATTGCTAG) | 0.187
GTAATGACTTGGGTTCTAACCTGTTGCCT (site GAAATGACTAG) | 0.403
GTAATGACTTGGGTTCTAACCTGTTGCCT (site GCAATGACTAG) | 0.194
GTAATGACTTGGGTTCTAACCTGTTGCCT (site GGAATGACTAG) | 0.105
GTAATGACTTGGGTTCTAACCTGTTGCCT (site GTAATGACTAG) | 1.6
GTAATGTCTTGGGTTCTAACCTGTTGCCT (site GAAATGTCTAG) | 0.284
GTAATGTCTTGGGTTCTAACCTGTTGCCT (site GCAATGTCTAG) | 0.289
GTAATGTCTTGGGTTCTAACCTGTTGCCT (site GGAATGTCTAG) | 0.112
GTAATGTCTTGGGTTCTAACCTGTTGCCT (site GTAATGTCTAG) | 2.04
GTACAATCTTGGGTTCTAACCTGTTGCCT (site ATACAATCTAG) | 0.947
GTACAATCTTGGGTTCTAACCTGTTGCCT (site CTACAATCTAG) | 0.339
GTACAATCTTGGGTTCTAACCTGTTGCCT (site GTACAATCTAG) | 1.43
GTACAATCTTGGGTTCTAACCTGTTGCCT (site TTACAATCTAG) | 0.371
GTACCTACTTGGGTTCTAACCTGTTGCTA (site CGACCTACTTA) | 0.0562
GTACCTACTTGGGTTCTAACCTGTTGCTA (site GTACCTACTTA) | 1.33
GTACGAGCTTGGGTTCTAACCTGTTGCCG (site GTACGAGCTCG) | 0.848
GTACGAGCTTGGGTTCTAACCTGTTGCCG (site GTGTGAGCTCG) | 0.38
GTACGTCCTTGGGTTCTAACCTGTTGCAT (site GTACGTCCTAA) | 0.133
GTACGTCCTTGGGTTCTAACCTGTTGCAT (site GTACGTCCTAC) | 1.01
GTACGTCCTTGGGTTCTAACCTGTTGCAT (site GTACGTCCTAG) | 0.52

Sequence | recombinant barcode read abundance (log10)
GTACGTCCTTGGGTTCTAACCTGTTGCAT (site GTACGTCCTAT) | 1
GTACGTCCTTGGGTTCTAACCTGTTGCCT (site GTACGTCCTAA) | 0.112
GTACGTCCTTGGGTTCTAACCTGTTGCCT (site GTACGTCCTAC) | 0.352
GTACGTCCTTGGGTTCTAACCTGTTGCCT (site GTACGTCCTAG) | 0.482
GTACGTCCTTGGGTTCTAACCTGTTGCCT (site GTACGTCCTAT) | 0.0848
GTACTACCTTGGGTTCTAACCTGTTGCCG (site ACGGAGACTAT) | 0.198
GTACTACCTTGGGTTCTAACCTGTTGCCG (site GTACTACCTCG) | 1.14
GTACTCTCTTGGGTTCTAACCTGTTGCAG (site CCGTCAACTAG) | 0.0592
GTACTCTCTTGGGTTCTAACCTGTTGCAG (site GTACTCTCTCT) | 1.33
GTAGACCCTTGGGTTCTAACCTGTTGCTG (site GTAGACCCTAC) | 1.29
GTAGACCCTTGGGTTCTAACCTGTTGCTG (site GTAGACCCTCA) | 2.94
GTAGAGTCTTGGGTTCTAACCTGTTGCTT (site GTAGAGTCTAA) | 2.41
GTAGAGTCTTGGGTTCTAACCTGTTGCTT (site GTGGAGTCTAG) | 0.685
GTAGCCACTTGGGTTCTAACCTGTTGCCT (site GTAGCCACTAG) | 2.37
GTAGCCACTTGGGTTCTAACCTGTTGCCT (site GTCGCCACTAG) | 0.449
GTAGCCACTTGGGTTCTAACCTGTTGCCT (site GTGGCCACTAG) | 0.791
GTAGCCACTTGGGTTCTAACCTGTTGCCT (site GTTGCCACTAG) | 1.06
GTAGGCGCTTGGGTTCTAACCTGTTGCCT (site GTAGGCGCTAG) | 1.96
GTAGGCGCTTGGGTTCTAACCTGTTGCCT (site GTCGGCGCTAG) | 0.33
GTAGGCGCTTGGGTTCTAACCTGTTGCCT (site GTGGGCGCTAG) | 0.441
